Assay results reported in patent publication US6180664A (priority 1996, dated 2001).

Experiments:
[1] = tested on: isolated rabbit aortic rings; assay: tissue or blood
blood = settings: cited from earlier work

O=[N+]([O-])OCC(CO)(CO)CO [PEMN, pentaerythrityl mononitrate]
pD2 value [1]: 5

CCCCCCCCCCCCCCCCOCC(COP(=O)([O-])OCC[N+](C)(C)C)OC(C)=O (stereo not shown) [platelet activation factor]
concentration inducing platelet aggregation (blood): 0.1 nM | concentration inducing vasodilation (blood): 0.1 nM

CCOC(=O)C(CO[N+](=O)[O-])(CO[N+](=O)[O-])C(=O)OCC [Bis-MA diethyl ester, Diethyl 2,2-bis(nitryloxymethyl)malonate]
EC50 ([1]; Oryctolagus cuniculus, read-out: pD2 value (converted)): 251 nM
